Publication PMC4333385 (Nucleic Acids Research, 2014)

How the values were obtained:
[1] = biological target: T1, E. coli RecQ helicase (Escherichia coli, UniProt P15043); test: quenched-flow ATP hydrolysis, global fit; assay type: biochemical; settings: SF50 buffer pH 7.5, 5 mM MgCl2, 50 mM NaCl, 25 °C; gamma-32P-ATP; read-out: DNA-free RecQ
From the text: quenched-flow ATP hydrolysis, global fit on E. coli RecQ helicase

[2] = biological target: T1, E. coli RecQ helicase; test: stopped-flow FRET binding kinetics; settings: association rate constant, Kd not given, SF50 buffer pH 7.5, 5 mM MgCl2, 25 °C, labelled compound
From the text: stopped-flow FRET binding kinetics on E. coli RecQ helicase

[3] = biological target: T1, E. coli RecQ helicase; test: stopped-flow FRET binding kinetics (k-1/k1); settings: read-out: DNA-free RecQ
From the text: stopped-flow FRET binding kinetics (k-1/k1) on E. coli RecQ helicase

T1 sequence (P15043 2-609): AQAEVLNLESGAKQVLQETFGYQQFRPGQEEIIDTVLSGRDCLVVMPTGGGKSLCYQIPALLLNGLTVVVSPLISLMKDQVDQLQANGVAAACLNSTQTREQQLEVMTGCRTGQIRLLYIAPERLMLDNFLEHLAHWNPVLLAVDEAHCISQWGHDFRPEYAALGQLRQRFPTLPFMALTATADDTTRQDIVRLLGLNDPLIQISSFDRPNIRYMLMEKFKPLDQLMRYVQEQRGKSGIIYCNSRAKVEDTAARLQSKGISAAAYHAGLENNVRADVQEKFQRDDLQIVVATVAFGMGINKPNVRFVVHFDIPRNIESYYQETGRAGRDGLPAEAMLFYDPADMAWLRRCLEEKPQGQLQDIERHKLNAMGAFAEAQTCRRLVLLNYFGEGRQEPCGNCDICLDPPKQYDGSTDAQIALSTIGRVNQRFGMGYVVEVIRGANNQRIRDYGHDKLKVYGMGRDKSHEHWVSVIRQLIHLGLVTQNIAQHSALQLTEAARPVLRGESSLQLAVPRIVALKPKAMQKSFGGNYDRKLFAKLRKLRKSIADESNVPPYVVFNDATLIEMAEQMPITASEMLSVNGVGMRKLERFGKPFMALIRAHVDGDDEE

Compound: Nc1ncnc2c1ncn2[C@@H]1O[C@H](COP(=O)(O)OP(=O)(O)OP(=O)(O)O)[C@@H](O)[C@H]1O [ATP]
- Kd [1]: 120 ± 30 µM

Compound: CNc1ccccc1C(=O)O[C@H]1C[C@H](n2cnc3c(N)ncnc32)O[C@@H]1COP(=O)(O)OP(=O)(O)O [mdADP]
- DNA-free RecQ [2]: 4.5 ± 0.5 µM⁻¹ s⁻¹

Compound: CNc1ccccc1C(=O)O[C@H]1C[C@H](n2cnc3c(N)ncnc32)O[C@@H]1COP(=O)(O)OP(=O)(O)OP(=O)(O)O [mdATP, 3′-(N-methylanthraniloyl)-2′-deoxy-ATP]
- Kd [3]: 15 ± 2 µM
